Measurements: patent US20240181087A1, “COMPOSITION FOR CONTRAST IMAGING OF CANCER” (ASTELLAS PHARMA INC., priority 2021, published 2024)

Legend:
Assay type in all cases: in vivo
RenCa cell [1] = assay: near-infrared fluorescence imaging of abdominal cavity, peritoneal cancer mouse model (RenCa, intraperitoneal); details: tail vein 12 nmol/kg; laparotomy immediately after administration
Procedure: Metastatic spontaneous renal cell carcinoma line from BALB/c mouse, RenCa cell (5×10^6 cells, purchased from CLS Cell Lines Service GmbH, Eppelheim, Germany) was intraperitoneally inoculated into a mouse (BALB/cCrSlc, SPF, female, 7 weeks old) and the resultant mouse was bred for 14 days to cause peritoneal cancer therein. The mouse (weight: about 20 g) was anesthetized by subcutaneous administration of ketamine (75 mg/kg) and medetomidine (1 mg/kg), and the compound III (12 nmol/kg weight) was administered through the tail vein. Immediately after the administration, laparotomy was conducted to perform near-infrared fluorescence imaging with a near-infrared fluorescence imaging device (pde-neo, manufactured by Hamamatsu Photonics K.K.).

[2] = tested on: Human esophageal cancer cell KYSE850; assay: near-infrared fluorescence observation, human esophageal cancer subcutaneous transplant mouse model; details: nude mouse, tail vein 120 nmol/kg, 30 seconds after administration
Description: Human esophageal cancer cell KYSE850 was subcutaneously transplanted into the neck of a nude mouse (BALB/cSlc-nu, SPF, male, 5 weeks old), and the resultant mouse was bred for 18 days to create a mouse having esophageal cancer grown therein. The human esophageal cancer cell KYSE850 was purchased from JCRB cell bank of National Institutes of Biomedical Innovation, Health and Nutrition (Registration Number: JCRB1422, establisher: Graduate School of Pharmaceutical Sciences, Kyoto University, Department of Nanobio Drug Discovery, Yutaka Shimada).
The near-infrared fluorescence from a cancer tissue (circled site) was strong, and that from a normal tissue was weak (FIG. 25). It is noted that fluorescence in an elliptical frame corresponds to near-infrared fluorescence from the right and left kidneys.

[3] = tested on: Human stomach cancer cell MKN45; assay: near-infrared fluorescence observation, human stomach cancer cell subcutaneous transplant mouse; details: nude mouse, tail vein 120 nmol/kg, observed from above the skin
Description: Human stomach cancer cell MKN45 (1×10^7 cells, purchased from JCRB cell bank of National Institutes of Biomedical Innovation, Health and Nutrition) was subcutaneously transplanted into the right or left side, or the center of the back in the base of the foreleg of a nude mouse (BALB/cSlc-nu, SPF, male, 5 weeks old), and the resultant mouse was bred for 10 days to create a mouse having a stomach cancer tissue grown therein. After anesthetizing the mouse (weight: about 20 g) by subcutaneous administration of ketamine (75 mg/kg) and medetomidine (1 mg/kg), the compound III (120 nmol/kg weight) was administered through the tail vein, and near-infrared fluorescence was observed from above the skin on the back side with a near-infrared fluorescence imaging device (pde-neo, manufactured by Hamamatsu Photonics K.K.).

RenCa cell [4] = assay: near-infrared fluorescence imaging of liver, liver cancer-bearing mouse (RenCa, intravenous inoculation); details: tail vein 120 nmol/kg, after 10 minutes, laparotomy
Procedure: Metastatic spontaneous renal cell carcinoma line from BALB/c mouse, RenCa cell (1×10^6 cells, purchased from CLS Cell Lines Service GmbH, Eppelheim, Germany) was intravenously inoculated into a mouse (BALB/cCrSlc, SPF, female, 7 weeks old) under anesthesia by subcutaneous administration of ketamine (75 mg/kg) and medetomidine (1 mg/kg), and the resultant mouse was bred for 18 days to cause liver cancer therein. The mouse was anesthetized by subcutaneous administration of ketamine (75 mg/kg) and medetomidine (1 mg/kg), and the compound III (120 nmol/kg weight) was administered through the tail vein. After 10 minutes, laparotomy was conducted to perform near-infrared fluorescence imaging with a near-infrared fluorescence imaging device (pde-neo, manufactured by Hamamatsu Photonics K.K.). Near-infrared fluorescence of the compound III from a liver normal tissue was strong, light emission of the compound III from a liver cancer site (framed site in the right image) was very weak, and thus, the normal site and the cancer site could be distinguished from each other depending on the light emission (FIG. 19).

[5] = tested on: Human stomach cancer cell MKN45-Luc; assay: near-infrared fluorescence observation of abdominal cavity, peritoneal dissemination mouse model; details: tail vein 40 nmol/kg, 10 minutes
Description: Human stomach cancer cell MKN45-Luc (5×10^6 cells, purchased from JCRB cell bank of National Institutes of Biomedical Innovation, Health and Nutrition) was intraperitoneally injected into a nude mouse (BALB/cSlc-nu, SPF, male, weight: about 20 g), and the resultant mouse was bred for 15 days to create a nude mouse having peritoneal dissemination. […] The near-infrared fluorescence was not emitted from the abdominal cavity of the normal mouse (FIG. 22).

[6] = tested on: human neuroblastoma cells SH-SY5Y; assay: near-infrared fluorescence imaging after topical administration into tumor, human neuroblastoma subcutaneous transplant model; details: SCID mouse, 0.02 to 0.1 mL of 1 mg/mL, 1 hour after administration
Procedure: A human cancer cell transplant model mouse was created as follows: • (Head and neck/tongue cancer) To immunodeficient SCID mice (weight: 17 g to 23 g), about 10^6 human tongue cancer cells CAL27 (purchased from American Type Culture Collection: ATCC) were subcutaneously administered, and the resultant mice were grown for 49 days to create tumor models. • (Brain cancer/neuroblastoma) To immunodeficient SCID mice (weight: 17 g to 23 g), about 10^6 human neuroblastoma cells SH-SY5Y (purchased from ATCC) were subcutaneously administered, and the resultant mice were grown for 90 days to create tumor models. • (Brain cancer/glioblastoma) To immunodeficient SCID mice (weight: 17 g to 23 g), about 10^6 human glioblastoma cells U-251MG (obtained from European Collection of Authenticated Cell Cultures) were subcutaneously administered, and the resultant mice were grown for 90 days to create tumor models.
Subsequently, to the tumor of each of the mouse models, 0.02 to 0.1 mL of a saline containing the compound III (concentration of the compound III: 1 mg/mL) was topically administered, and fluorescence imaging was conducted transdermally with a near-infrared fluorescence camera (Fluobeam, manufactured by Fluoptics) (excitation wavelength: 780 nm, detection wavelength: 800 nm or more).

[7] = MKN45-Luc peritoneal dissemination nude mouse

COC1=C(/C=C/C2=[N+](CCC(=O)NCCCO[C@H]3[C@H]4O[C@H]5[C@H](O)[C@@H](O)[C@@H](O[C@H]6[C@H](O)[C@@H](O)[C@@H](O[C@H]7[C@H](O)[C@@H](O)[C@@H](O[C@H]8[C@H](O)[C@@H](O)[C@@H](O[C@H]9[C@H](O)[C@@H](O)[C@@H](O[C@H]%10[C@H](O)[C@@H](O)[C@@H](O[C@@H]([C@@H]3O)[C@@H](CO)O4)O[C@@H]%10CO)O[C@@H]9CO)O[C@@H]8CO)O[C@@H]7CO)O[C@@H]6CO)O[C@@H]5CO)c3ccc4ccccc4c3C2(C)C)CCC/C1=C\C=C1\N(CCC(=O)NCCCO[C@H]2[C@H]3O[C@H]4[C@H](O)[C@@H](O)[C@@H](O[C@H]5[C@H](O)[C@@H](O)[C@@H](O[C@H]6[C@H](O)[C@@H](O)[C@@H](O[C@H]7[C@H](O)[C@@H](O)[C@@H](O[C@H]8[C@H](O)[C@@H](O)[C@@H](O[C@H]9[C@H](O)[C@@H](O)[C@@H](O[C@@H]([C@@H]2O)[C@@H](CO)O3)O[C@@H]9CO)O[C@@H]8CO)O[C@@H]7CO)O[C@@H]6CO)O[C@@H]5CO)O[C@@H]4CO)c2ccc3ccccc3c2C1(C)C.[Cl-] [compound III, 3-(3-{[3-(cyclomaltoheptaose-21-O-yl)propyl]amino}-3-oxopropyl)-2-{(1E)-2-[(3E)-3-{(2E)-2-[3-(3-{[3-(cyclomaltoheptaose-21-O-yl)propyl]amino}-3-oxopropyl)-1,1-dimethyl-1,3-dihydro-2H-benzo[e]indol-2-ylidene]ethylidene}-2-methoxycyclohexa-1-en-1-yl]ethene-1-yl}-1,1-dimethyl-1H-benzo[e]indol-3-ium chloride]
near-infrared fluorescence from peritoneal cancer site versus normal tissue (RenCa cell [1]): stronger than that from a normal tissue
near-infrared fluorescence from esophageal cancer tissue [2]: strong
near-infrared fluorescence from normal tissue [2]: weak
near-infrared fluorescence of stomach cancer tissue versus normal tissue [3]: stronger in a cancer tissue than in a normal tissue
light emission from liver cancer site (RenCa cell [4]): very weak
near-infrared fluorescence from liver normal tissue (RenCa cell [4]): strong
near-infrared fluorescence of dissemination present in the entire abdominal cavity [5, 7]: emitted the near-infrared fluorescence
near-infrared fluorescence of visually recognizable cancer tissue (nearly necrotic) [5, 7]: did not emit the near-infrared fluorescence
near-infrared fluorescence from abdominal cavity of normal mouse ([5]; normal nude mouse): not emitted
retention inside the tumor (fluorescence imaging) [6]: retained inside the tumor
